Laboratory results as given in the supplement of paper PMC11061612.

Columns and labels:
Assay in all cases: Bliss excess, mean over the matrix (fraction); higher = more synergy
[1] = system: BE-13 (T-Lymphoblastic Leukemia)
Outline: (§1)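 After 24 hours at 37°C and 5% CO2 in 1536-well plates, cells in DMEM/F12 or RPMI plus 10% FBS received two-drug dose matrices for 72 hours. Viability came from CellTiter-Glo 2.0 luminescence and was scaled as inhibition, anchored at 0 by vehicle wells and at 1 by blank wells. Combination Emax is taken as the second-highest inhibition in the matrix, and Bliss excess as the observed combination effect less EA + EB − EA·EB, with EA and EB the single-agent effects.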

[2] = system: BFTC-909 (Kidney Carcinoma)
Outline: as §1

[3] = system: FTC-133 (Thyroid Gland Carcinoma)
Outline: as §1

[4] = system: GAMG (Glioblastoma)
Outline: as §1

[5] = system: HH (T-Cell Non-Hodgkin's Lymphoma)
Outline: as §1

[6] = system: HeLa (Cervical Carcinoma)
Outline: as §1

[7] = system: HuCCT1 (Biliary Tract Carcinoma)
Outline: as §1

[8] = system: KMRC-20 (Kidney Carcinoma)
Outline: as §1

[9] = system: L-428 (Hodgkin's Lymphoma)
Outline: as §1

[10] = system: LNZTA3WT4 (Low Grade Glioma)
Outline: as §1

[11] = system: LOXIMVI (Melanoma)
Outline: as §1

[12] = system: MPP-89 (Mesothelioma)
Outline: as §1

[13] = system: NCI-H209 (Small Cell Lung Carcinoma)
Outline: as §1

[14] = system: NUGC-4 (Gastric Carcinoma)
Outline: as §1

[15] = system: OV-56 (Ovarian Carcinoma)
Outline: as §1

[16] = system: SAS (Oral Cavity Carcinoma)
Outline: as §1

[17] = system: SNU-16 (Gastric Carcinoma)
Outline: as §1

[18] = system: SNU-449 (Hepatocellular Carcinoma)
Outline: as §1

[19] = system: SW1573 (Lung Adenocarcinoma)
Outline: as §1

[20] = system: SW1710 (Bladder Carcinoma)
Outline: as §1

SMILES	Bliss excess [1]	Bliss excess [2]	Bliss excess [3]	Bliss excess [4]	Bliss excess [5]	Bliss excess [6]	Bliss excess [7]	Bliss excess [8]	Bliss excess [9]	Bliss excess [10]	Bliss excess [11]	Bliss excess [12]	Bliss excess [13]	Bliss excess [14]	Bliss excess [15]	Bliss excess [16]	Bliss excess [17]	Bliss excess [18]	Bliss excess [19]	Bliss excess [20]
CN(CCO)CC[C@H](CSc1ccccc1)Nc1ccc(S(=O)(=O)NC(=O)c2ccc(N3CCC([C@@H](O)c4ccccc4-c4ccc(Cl)cc4)CC3)cc2)cc1S(=O)(=O)C(F)(F)F [AZD4320] + C[C@@H](Nc1cc(F)cc(F)c1)c1cc(C(=O)N(C)C)cc2c(=O)cc(N3CCOCC3)oc12 [AZD8186] (first compound max 1 µM, 7x7, partner max 3 µM)	-0.0065	-0.0011	0.0718	0.0337	0.012	0.0156	0.0583	0.0459	0.0393	-0.0197	-0.0239	0.0212	0.0529	0.0385	-0.0031	0.0033	0.0286	0.0093	-0.0169	0.0263
CC1(C)CCC(CN2CCN(c3ccc(C(=O)NS(=O)(=O)c4ccc(NCC5CCOCC5)c([N+](=O)[O-])c4)c(Oc4cnc5[nH]ccc5c4)c3)CC2)=C(c2ccc(Cl)cc2)C1 [Venetoclax] + C[C@@H](Nc1cc(F)cc(F)c1)c1cc(C(=O)N(C)C)cc2c(=O)cc(N3CCOCC3)oc12 [AZD8186] (first compound max 1 µM, 7x7, partner max 3 µM)	-0.0369	0.0073	-0.0168	-0.0453	0.0221	-0.0326	-0.0383	-0.0195	0.0037	-0.0539	-0.0243	-0.0096	0.1	0.0298	-0.0178	-0.0332	0.009	-0.0583	-0.0556	-0.0826
CCc1c2c(nc3ccc(O)cc13)-c1cc3c(c(=O)n1C2)COC(=O)[C@]3(O)CC [SN-38] + CN(C)CCCOc1ccc(-c2ccc3ncc4c(c3c2)n(C2CCOCC2)c(=O)n4C)cn1 [AZD0156] (first compound max 0.3 µM, 7x7, partner max 1 µM)	-0.103	0.0225	-0.0031	0.0527	-0.0452	0.0255	-0.0337	-0.0156	-0.0558	0.0092	0.0017	0.0342	-0.0073	0.0208	0.0154	0.0781	0.107	-0.0353	0.0139	0.0111
CN(CCO)CC[C@H](CSc1ccccc1)Nc1ccc(S(=O)(=O)NC(=O)c2ccc(N3CCC([C@@H](O)c4ccccc4-c4ccc(Cl)cc4)CC3)cc2)cc1S(=O)(=O)C(F)(F)F [AZD4320] + C=CCn1c(=O)c2cnc(Nc3ccc(N4CCN(C)CC4)cc3)nc2n1-c1cccc(C(C)(C)O)n1 [AZD1775] (first compound max 1 µM, partner max 1 µM)	0.046	0.0577	0.0341	0.0041	0.0911	-0.0523	-0.0514	0.0331	0.0961	-0.0201	0.0203	0.0351	0.0963	-0.0217	-0.0113	0.05	0.0049	-0.0744	0.0152	-0.0047
COc1cccc(OCCCN)c1-c1cc(Nc2cnc(C#N)cn2)n[nH]1 [Prexasertib] + C[C@@H]1COCCN1C2=NC(=NC(=C2)C3(CC3)[S@](=N)(=O)C)C4=C5C=CNC5=NC=C4 [AZD6738] (first compound max 1 µM, 7x7, partner max 10 µM)	-0.0018	0.0417	0.0016	0.0414	-0.0053	0.005	-0.0108	0.0013	-0.0418	-0.0422	-0.0165	-0.0232	-0.0214	-0.0203	0.0148	0.0203	-0.0058	0.0134	-0.0066	0.0092
NC1(C(=O)N[C@@H](CCO)c2ccc(Cl)cc2)CCN(c2ncnc3[nH]ccc23)CC1 [Capivasertib] + C[C@@H]1COCCN1C2=NC(=NC(=C2)C3(CC3)[S@](=N)(=O)C)C4=C5C=CNC5=NC=C4 [AZD6738] (first compound max 10 µM, 7x7, partner max 10 µM)	-0.0877	-0.0878	-0.042	-0.0558	-0.0396	-0.0926	-0.0335	-0.128	-0.0004	-0.027	-0.0014	-0.0166	-0.0054	-0.0488	-0.032	-0.0308	-0.0208	-0.0057	-0.0915	-0.0403
C[C@@H]1COCCN1c1cc(C2([S@](C)(=N)=O)CC2)nc(-c2ccnc3[nH]ccc23)n1 [AZD6738] + O=C(c1cc(Cc2n[nH]c(=O)c3ccccc23)ccc1F)N1CCN(C(=O)C2CC2)CC1 [Olaparib] (first compound max 10 µM, 7x7, partner max 10 µM)	0.0278	0.0337	-0.0401	-0.0461	-0.0082	0.0497	-0.0264	-0.0101	0.0227	-0.0197	-0.0956	0.0055	-0.0599	-0.0163	-0.0159	-0.0361	-0.0054	0.0007	-0.0044	-0.0498
CN(CCO)CC[C@H](CSc1ccccc1)Nc1ccc(S(=O)(=O)NC(=O)c2ccc(N3CCC([C@@H](O)c4ccccc4-c4ccc(Cl)cc4)CC3)cc2)cc1S(=O)(=O)C(F)(F)F [AZD4320] + CN(C)CCCOc1ccc(-c2ccc3ncc4c(c3c2)n(C2CCOCC2)c(=O)n4C)cn1 [AZD0156] (first compound max 1 µM, 7x7, partner max 1 µM)	-0.0325	0.009	0.0392	-0.0237	-0.0203	-0.0321	-0.0539	-0.0377	0.0464	-0.0259	0.0015	-0.0339	0.033	-0.0513	-0.015	-0.0472	-0.0207	-0.0828	-0.0585	-0.0302
CC1(C)CCC(CN2CCN(c3ccc(C(=O)NS(=O)(=O)c4ccc(NCC5CCOCC5)c([N+](=O)[O-])c4)c(Oc4cnc5[nH]ccc5c4)c3)CC2)=C(c2ccc(Cl)cc2)C1 [Venetoclax] + C[C@@H]1COCCN1C2=NC(=NC(=C2)C3(CC3)[S@](=N)(=O)C)C4=C5C=CNC5=NC=C4 [AZD6738] (first compound max 1 µM, 7x7, partner max 10 µM)	-0.0204	-0.0384	-0.0014	-0.0727	-0.0012	-0.0688	-0.012	-0.0047	0.0164	0.0105	-0.011	-0.0226	0.127	-0.011	-0.0475	0.0194	-0.0218	-0.0239	-0.0705	-0.0404
Cn1cnc2c(F)c(Nc3ccc(Br)cc3Cl)c(C(=O)NOCCO)cc21 [Selumetinib] + C=CCn1c(=O)c2cnc(Nc3ccc(N4CCN(C)CC4)cc3)nc2n1-c1cccc(C(C)(C)O)n1 [AZD1775] (first compound max 10 µM, partner max 1 µM)	-0.0423	-0.0047	-0.0465	0.0063	-0.0605	-0.0826	-0.0385	-0.0682	-0.0744	-0.0443	0.0822	-0.0131	-0.0211	-0.0286	-0.0766	0.0324	0.0433	-0.0413	-0.0582	-0.0409
C=CCn1c(=O)c2cnc(Nc3ccc(N4CCN(C)CC4)cc3)nc2n1-c1cccc(C(C)(C)O)n1 [AZD1775] + O=C(c1cc(Cc2n[nH]c(=O)c3ccccc23)ccc1F)N1CCN(C(=O)C2CC2)CC1 [Olaparib] (first compound max 1 µM, partner max 10 µM)	-0.0409	0.0075	-0.0645	0.0147	-0.0449	0.0346	-0.0149	-0.112	-0.0252	-0.0395	-0.0897	-0.0018	-0.0579	-0.0481	-0.0576	-0.0939	0.0102	-0.0418	-0.0268	-0.0299
Cc1c2c(nn1C)CSCc1cc(n(C)n1)CSc1cc(c3ccccc3c1)OCCCc1c(C(=O)O)n(C)c3c-2c(Cl)ccc13 [AZD5991] + CCN(CCO)CCCOc1ccc2c(Nc3cc(CC(=O)Nc4cccc(F)c4)[nH]n3)ncnc2c1 [AZD2811] (first compound max 1 µM, 7x7, partner max 1 µM)	0.0225	0.0156	0.0074	0.0105	-0.049	0.0319	0.0128	0.0023	0.0712	0.038	0.0212	0.0367	0.191		0.0421	-0.0092	0.0377	-0.0041	0.0108	0.0088
Cc1c2c(nn1C)CSCc1cc(n(C)n1)CSc1cc(c3ccccc3c1)OCCCc1c(C(=O)O)n(C)c3c-2c(Cl)ccc13 [AZD5991] + CN(C)CCCOc1ccc(-c2ccc3ncc4c(c3c2)n(C2CCOCC2)c(=O)n4C)cn1 [AZD0156] (first compound max 1 µM, 7x7, partner max 1 µM)	-0.0285	0.0101	-0.0105	0.0339	-0.0248	-0.0266	-0.04	-0.0036	0.0294	-0.0135	0.0016		0.008	-0.0305	-0.0276	0.0142	0.0313	-0.0243	-0.0245	-0.0134
CN(C)CCCOc1ccc(-c2ccc3ncc4c(c3c2)n(C2CCOCC2)c(=O)n4C)cn1 [AZD0156] + O=C(c1cc(Cc2n[nH]c(=O)c3ccccc23)ccc1F)N1CCN(C(=O)C2CC2)CC1 [Olaparib] (first compound max 3 µM, partner max 3 µM)	0.0894	0.0705		0.0515	-0.0513	-0.0057	-0.0012	0.0163	-0.0116	-0.0184	0.0317	-0.0547	0.163	-0.0473	-0.0449	0.0188		-0.0344	-0.0002	-0.0233
